Paper PMC3574188 (Bioorganic & medicinal chemistry, 2012)

Legend:
BoNT/A LC (1-425aa) [1] = target: T1, BoNT/A LC (1-425aa) (Clostridium botulinum, UniProt P0DPI0); type: biochemical
BoNT/A LC (1-425aa) [2] = target: T1, BoNT/A LC (1-425aa); test: biochemical
BoNT/A LC = conditions: cited from earlier work

T1 sequence (P0DPI0 1-425 limits assumed): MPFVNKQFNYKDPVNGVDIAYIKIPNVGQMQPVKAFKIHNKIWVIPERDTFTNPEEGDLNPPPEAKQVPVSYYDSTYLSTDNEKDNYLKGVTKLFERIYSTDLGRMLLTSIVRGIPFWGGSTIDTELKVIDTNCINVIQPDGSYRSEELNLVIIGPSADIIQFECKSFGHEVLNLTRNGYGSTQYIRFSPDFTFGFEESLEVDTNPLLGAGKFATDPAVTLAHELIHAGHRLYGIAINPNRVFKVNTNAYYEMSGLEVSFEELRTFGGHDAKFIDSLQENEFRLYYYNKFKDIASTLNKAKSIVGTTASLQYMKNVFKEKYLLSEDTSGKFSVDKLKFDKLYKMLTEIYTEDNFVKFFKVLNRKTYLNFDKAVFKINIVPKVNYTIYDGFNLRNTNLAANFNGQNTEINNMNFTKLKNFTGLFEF

Structure (SMILES)	fold lower IC50 value than parent 3a (BoNT/A LC (1-425aa) [1])	Ki (BoNT/A LC (1-425aa) [2])	fold improved potency (lower Ki) than parent lead 3a (BoNT/A LC (1-425aa) [2])	inhibitory potency against BoNT/A LC relative to parent 3a (BoNT/A LC (1-425aa) [1])	also measured
O=C(CC12CC3CC(C1)CC(c1ccc(Cl)cc1)(C3)C2)NO [Compound 3o]	~ 30 fold	~30 nM	17 fold	–	–
O=C(CC12CC3CC(C1)CC(C(=O)O)(C3)C2)NO [Compound 3h]	–	–	–	no activity	–
O=C(CC12CC3CC(CC(Cl)(C3)C1)C2)NO [Compound 3f]	–	–	–	comparable with the lead molecule	–
O=C(CC12CC3CC(C1)CC(c1ccc(Br)cc1)(C3)C2)NO [Compound 3p]	~ 30 fold	~30 nM	17 fold	–	–
O=C(C[C@@H](CCO)c1ccc(Cl)cc1Cl)NO [XI]	–	–	–	–	fold lower inhibition constant than the parent X (BoNT/A LC): ~2 fold
O=C(CC12CC3CC(CC(Br)(C3)C1)C2)NO [Compound 3g]	–	–	–	comparable with the lead molecule	–
